The results in this text go back to US8546389B2 (priority 2010, dated 2013).

In assay [1] the test system is genotype 1b (Con 1) subgenomic replicon cell line. Nature of the assay: HCV replicon assay, genotype 1b (Renilla luciferase). In kind it is cell-based, HCV genotype 1b (Con 1). To be noted: genotype 1b replicon. A digest of the protocol: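 Subgenomic replicon cells expressing Renilla luciferase (1b Con1; 1a and 2a lines by the same method) seeded at 7000 cells/well (5000 for 2a) without G418, exposed to 3-fold compound dilutions for 72 h at 37 °C. Luciferase activity measured; EC50 by non-linear regression.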
For orientation: In antiviral work, replicon cells carry a viral genome segment that copies itself.

The next assay concerns the target 1b (BK) NS5bΔ21 (Hepatitis C virus genotype 1b (isolate BK) (HCV), UniProt P26663). The assay is described as follows: HCV polymerase inhibition assay, genotype 1b. It is filed as biochemical, HCV genotype 1b (BK). An outline of the steps: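 Both genotype 1b and 3a enzymes assayed identically: ^33P-GTP incorporation on poly(rC) template, GTP at Km, 50 nM NS5bΔ21, pH 7.5 Tris with 5 mM MgCl2 and MnCl2, 1 h reaction ended by cold EDTA. Filter-bound label counted; IC50 fitted by non-linear regression across three-fold dilution series.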

The subject of assay [2] is subgenomic genotype 1a replicon cell line. The assay is described as follows: HCV replicon assay, genotype 1a. It is filed as cell-based, HCV genotype 1a. The procedure: (§1) A genotype 1b (Con 1) subgenomic replicon cell line based on Blight et al., Science 2000 290: 1972-1974, modified to express a Renilla luciferase reporter gene was used to assess antiviral activity of test compounds. Cell cultures were maintained in a sub-confluent state in DMEM with glutamine, 10% heat-inactivated foetal bovine serum (FBS) and G418 (Geneticin®).
(§2) For assay, cells were seeded at a density of 7000 cells/well into 96 well tissue culture trays in culture media lacking G418. Compounds were tested in a three fold dilution series, for example starting from 50 uM. After 72 hours incubation at 37° C. and 5% CO2, Renilla luciferase activity was quantified via the Promega Renilla Luciferase or Renilla-Glo™ Luciferase Assay Systems (Promega corporation. The same method was employed for replicon assays using subgenomic genotype 1a and 2a replicon cell lines with a seeding cell density of 5000 cells/well for the 2a cell lines.
(§3) The compound concentration that reduced luciferase activity by 50% (EC50) was calculated using non-linear regression.

Assay [3] deals with subgenomic genotype 2a replicon cell line. Nature of the assay: HCV replicon assay, genotype 2a. In kind it is cell-based, HCV genotype 2a. As to the method: as §1, §2, §3
Assay [4] concerns genotype 1b (Con 1) subgenomic replicon cell line. Nature of the assay: Combination studies in replicon cells (MacSynergy II). It is filed as cell-based, HCV genotype 1b (Con 1). As to the method:
A genotype 1b (Con 1) subgenomic replicon cell line based on Blight et al., Science 2000 290: 1972-1974, modified to express a Renilla luciferase reporter gene was used to assess synergy of test compounds. Cell cultures were maintained in a sub-confluent state in DMEM with glutamine, 10% heat-inactivated foetal bovine serum (FBS) and G418 (Geneticin®).
For assay, cells were seeded at a density of 7000 cells/well into 96 well tissue culture trays in culture media lacking G418. The compound concentration that reduced luciferase activity by 50% (EC50) was determined independently for each compound and used to set the range of concentrations for the combination experiments. […] The ratio of the 2 compounds tested remained fixed across the titration range. […] After 72 hours incubation at 37° C. and 5% CO2, Renilla luciferase activity was quantified via the Promega Renilla Luciferase Assay System.
Results were analysed and levels of synergy assessed via generation of 3D synergy plots using MacSynergy™ II (Prichard, M. N., K. R. Aseltine, and C. Shipman, Jr. 1993. MacSynergy II. Version 1.0. User's manual. University of Michigan, Ann Arbor.). […] Compound 175 was selected as a representative example of the compounds of the invention for synergistic studies.

Assay [5] deals with genotype 3a (VRL-69) NS5bΔ21 polymerase (Hepatitis C virus genotype 3a, UniProt Q81258). The assay is described as follows: HCV polymerase inhibition assay, genotype 3a. To be noted: genotype 3a; read-out: 3a NS5b polymerase IC50. In kind it is biochemical, HCV genotype 3a (VRL-69). The procedure:
HCV polymerase reactions were carried out using a modified method of Howe et al., Antimicrobial Agents and Chemotherapy 2004 48(12): 4813-4821. Reactions contained a final concentration of, 0.5% DMSO, 50 nM, 1b (BK) NS5bΔ21, 20 mM Tris-HCl pH 7.5, 5 mM MgCl2, 5 mM MnCl2, 3 mM DTT, 0.05% BSA, 0.2 U/μL RNasin, 10 μg/mL Poly(rC) template, GTP (at Km) and 0.05 μCi/μL ^33P-GTP in a total reaction volume of 50 μL. Compounds were tested in a three fold dilution series, for example starting from 50 μM. Reactions were initiated with the addition of GTP and terminated after 1 hour with 50 μL ice cold 0.2 M EDTA. Terminated reactions were transferred to DEAE 96-well filter plates, unincorporated nucleotides washed from the filters and 50 μL scintillation fluid added prior to reading on a scintillation counter. Similarly, a genotype 3a (VRL-69) NS5bΔ21 polymerase enzyme assay was conducted using essentially the same method.
The compound concentration that reduced ^33P-GTP incorporation by 50% (IC50) was calculated using non-linear regression.

Setting [6] is: Hepatitis C virus, 72 hours, luciferase, read-out: genotype 1b EC50 (range class).
Where [7] appears, read: Hepatitis C virus, read-out: Replicon 1b EC50.
Where [8] appears, read: 1b (BK) NS5bΔ21, 33P-GTP incorporation, read-out: 1b polymerase IC50 (range class).
Where [9] appears, read: genotype 1b, read-out: 1b NS5b polymerase IC50.

A word on the EC50: it is the midpoint of the concentration-response curve. As a reminder, the IC50 is the concentration needed to halve the response being measured.

Read-outs that look alike come from different tables or passages of the source. A value given as a limit tells only on which side of the number the result lay.

genotype 3a (VRL-69) NS5bΔ21 polymerase, sequence (Q81258 whole entry, looked up, stated change not applied): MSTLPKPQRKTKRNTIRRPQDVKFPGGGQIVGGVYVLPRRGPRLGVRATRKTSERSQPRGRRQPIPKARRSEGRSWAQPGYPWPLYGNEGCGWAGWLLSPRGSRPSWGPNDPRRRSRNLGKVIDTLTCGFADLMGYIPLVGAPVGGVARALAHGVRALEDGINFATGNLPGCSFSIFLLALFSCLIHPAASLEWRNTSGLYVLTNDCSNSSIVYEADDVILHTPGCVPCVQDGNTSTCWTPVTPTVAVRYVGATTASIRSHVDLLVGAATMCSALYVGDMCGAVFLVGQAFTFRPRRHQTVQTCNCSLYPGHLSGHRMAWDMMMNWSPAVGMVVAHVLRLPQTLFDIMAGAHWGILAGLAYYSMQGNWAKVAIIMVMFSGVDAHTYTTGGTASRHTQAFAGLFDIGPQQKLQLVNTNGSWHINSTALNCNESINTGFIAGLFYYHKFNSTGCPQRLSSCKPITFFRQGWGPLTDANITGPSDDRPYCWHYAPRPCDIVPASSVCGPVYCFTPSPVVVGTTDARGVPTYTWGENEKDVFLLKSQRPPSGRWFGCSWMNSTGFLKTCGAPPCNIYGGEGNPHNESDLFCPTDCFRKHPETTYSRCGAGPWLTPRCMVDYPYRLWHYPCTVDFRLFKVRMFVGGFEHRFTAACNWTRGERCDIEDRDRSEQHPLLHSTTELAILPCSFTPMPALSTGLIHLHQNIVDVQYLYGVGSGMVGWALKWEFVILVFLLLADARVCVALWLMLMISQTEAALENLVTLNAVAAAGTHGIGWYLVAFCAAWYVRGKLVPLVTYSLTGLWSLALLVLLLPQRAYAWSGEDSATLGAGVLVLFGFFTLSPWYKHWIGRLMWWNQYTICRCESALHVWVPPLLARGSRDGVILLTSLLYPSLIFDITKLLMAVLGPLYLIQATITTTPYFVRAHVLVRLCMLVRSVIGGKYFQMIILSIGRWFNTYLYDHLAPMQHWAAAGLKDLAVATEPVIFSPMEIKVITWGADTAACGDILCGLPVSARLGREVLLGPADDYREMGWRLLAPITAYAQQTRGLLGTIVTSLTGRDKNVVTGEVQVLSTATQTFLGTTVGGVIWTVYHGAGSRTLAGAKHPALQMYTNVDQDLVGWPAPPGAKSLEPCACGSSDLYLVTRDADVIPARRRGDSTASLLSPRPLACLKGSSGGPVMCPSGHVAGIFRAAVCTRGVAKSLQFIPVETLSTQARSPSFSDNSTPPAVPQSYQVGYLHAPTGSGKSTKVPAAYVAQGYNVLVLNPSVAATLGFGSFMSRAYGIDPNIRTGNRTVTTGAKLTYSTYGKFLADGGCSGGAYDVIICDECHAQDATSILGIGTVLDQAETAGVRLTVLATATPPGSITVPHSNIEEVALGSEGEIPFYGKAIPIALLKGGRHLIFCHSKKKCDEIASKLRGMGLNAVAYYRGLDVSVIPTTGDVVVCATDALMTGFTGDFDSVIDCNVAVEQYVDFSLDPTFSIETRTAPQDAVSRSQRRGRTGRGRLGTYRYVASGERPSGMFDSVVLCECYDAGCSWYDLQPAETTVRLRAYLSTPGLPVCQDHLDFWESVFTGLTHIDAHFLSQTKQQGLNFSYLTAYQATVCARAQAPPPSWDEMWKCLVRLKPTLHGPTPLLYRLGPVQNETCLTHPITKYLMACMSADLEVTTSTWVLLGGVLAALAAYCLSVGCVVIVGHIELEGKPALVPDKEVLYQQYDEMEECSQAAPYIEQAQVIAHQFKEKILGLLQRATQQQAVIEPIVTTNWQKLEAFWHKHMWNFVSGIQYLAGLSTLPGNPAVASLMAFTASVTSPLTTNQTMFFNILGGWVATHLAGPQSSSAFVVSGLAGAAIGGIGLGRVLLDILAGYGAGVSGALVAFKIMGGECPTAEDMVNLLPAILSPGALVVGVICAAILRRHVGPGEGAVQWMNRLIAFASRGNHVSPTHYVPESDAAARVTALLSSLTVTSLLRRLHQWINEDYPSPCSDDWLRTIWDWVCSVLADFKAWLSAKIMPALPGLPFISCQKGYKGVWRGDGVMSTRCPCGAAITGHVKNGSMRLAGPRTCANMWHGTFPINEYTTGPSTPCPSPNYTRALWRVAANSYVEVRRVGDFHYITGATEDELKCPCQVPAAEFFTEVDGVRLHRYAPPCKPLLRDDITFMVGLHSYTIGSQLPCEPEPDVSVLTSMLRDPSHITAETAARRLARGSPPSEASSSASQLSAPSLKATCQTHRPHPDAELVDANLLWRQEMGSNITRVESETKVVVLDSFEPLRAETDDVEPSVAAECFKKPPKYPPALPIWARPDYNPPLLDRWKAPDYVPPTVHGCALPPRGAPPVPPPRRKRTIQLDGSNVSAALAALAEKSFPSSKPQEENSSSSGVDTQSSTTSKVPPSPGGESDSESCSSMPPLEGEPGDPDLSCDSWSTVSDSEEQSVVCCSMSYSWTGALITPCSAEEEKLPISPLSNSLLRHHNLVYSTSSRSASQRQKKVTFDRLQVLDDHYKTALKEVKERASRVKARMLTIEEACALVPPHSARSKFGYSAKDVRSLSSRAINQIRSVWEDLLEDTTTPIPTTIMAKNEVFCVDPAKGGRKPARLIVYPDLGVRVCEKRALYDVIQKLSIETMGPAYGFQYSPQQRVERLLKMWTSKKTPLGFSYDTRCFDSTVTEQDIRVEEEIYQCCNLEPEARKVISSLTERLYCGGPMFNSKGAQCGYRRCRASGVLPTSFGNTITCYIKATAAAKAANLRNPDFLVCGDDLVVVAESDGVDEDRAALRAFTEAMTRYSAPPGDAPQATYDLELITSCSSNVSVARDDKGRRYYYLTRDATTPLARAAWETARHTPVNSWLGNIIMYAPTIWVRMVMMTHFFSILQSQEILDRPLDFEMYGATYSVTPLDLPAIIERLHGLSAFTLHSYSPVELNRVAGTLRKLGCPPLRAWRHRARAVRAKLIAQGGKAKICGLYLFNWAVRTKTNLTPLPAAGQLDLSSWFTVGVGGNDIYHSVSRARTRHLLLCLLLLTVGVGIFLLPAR
1b (BK) NS5bΔ21, sequence (P26663 2420-2989): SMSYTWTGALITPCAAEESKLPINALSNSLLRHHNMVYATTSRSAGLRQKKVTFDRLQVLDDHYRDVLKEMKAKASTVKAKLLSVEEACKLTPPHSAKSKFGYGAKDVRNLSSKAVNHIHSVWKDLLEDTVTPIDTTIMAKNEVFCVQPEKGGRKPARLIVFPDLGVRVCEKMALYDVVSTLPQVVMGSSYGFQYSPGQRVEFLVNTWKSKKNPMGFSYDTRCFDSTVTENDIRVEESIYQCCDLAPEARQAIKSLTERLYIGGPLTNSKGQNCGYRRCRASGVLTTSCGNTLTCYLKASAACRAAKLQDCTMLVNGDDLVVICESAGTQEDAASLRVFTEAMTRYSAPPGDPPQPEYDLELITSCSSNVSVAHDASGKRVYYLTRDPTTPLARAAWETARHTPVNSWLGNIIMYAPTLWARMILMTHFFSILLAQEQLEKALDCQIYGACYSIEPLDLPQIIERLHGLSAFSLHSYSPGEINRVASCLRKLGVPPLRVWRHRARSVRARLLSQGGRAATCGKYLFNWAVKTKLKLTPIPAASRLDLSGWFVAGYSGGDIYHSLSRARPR

With `CCN(c1cc2nn(-c3ccc(Cl)cc3)c(C(=O)NC)c2cc1C1CC1)S(C)(=O)=O` [Compound 175], the EC50 is less than 0.99 µM in assay [1] (setting [6]), 0.06 µM in assay [1] (setting [7]), 0.26 µM in assay [2] (Hepatitis C virus) and 0.08 µM in assay [3] (Hepatitis C virus). The IC50 at 1b (BK) NS5bΔ21 (setting [8]) is less than 0.99 µM; at 1b (BK) NS5bΔ21 (setting [9]) it was 0.1 µM; in assay [5], 0.03 µM. Besides, the “synergy in combination with a nucleoside NS5b inhibitor” value in assay [4] (with 4-amino-7-(2-C-methyl-β-D-ribofuranosyl)-pyrrolo[2,1-f][1,2,4]triazine, FIG. 1, 95% confidence intervals) is reported as “statistically significant synergy”. The “synergy in combination with an NS5a inhibitor” value in assay [4] (with BMS-790052, daclatasvir, FIG. 3, 95% confidence intervals) is given as “statistically significant synergy”. Further, in assay [4] (with VX-950, telaprevir, FIG. 2, 95% confidence intervals), the “synergy in combination with a NS3/4a protease inhibitor” value is on record as “statistically significant synergy”.

On to `CCN(c1cc2nn(-c3ccc(Oc4ccc(F)cc4)nc3)c(C(=O)NC)c2cc1C1CC1)S(C)(=O)=O` [Compound 136], for which the 50% effective concentration (EC50) in assay [1] (setting [6]) is less than 0.99 µM; in assay [1] (setting [7]) it was 0.27 µM; in assay [2] (Hepatitis C virus), 1.53 µM; in assay [3] (Hepatitis C virus), 1.8 µM. In addition, the IC50 was 1 to 9.99 µM on 1b (BK) NS5bΔ21 (setting [8]), 1.55 µM at 1b (BK) NS5bΔ21 (setting [9]) and 0.82 µM in assay [5].

As to `CNC(=O)c1c2cc(C3CC3)c(N(CCCO)S(C)(=O)=O)cc2nn1-c1ccc(Cl)cc1` [Compound 54, 2-(4-Chlorophenyl-1)-5-cyclopropyl-6-[3-hydroxypropyl(methylsulfonyl)amino]-N-methyl-indazole-3-carboxamide], the EC50 amounted to 0.1 µM in assay [1] (read-out: Replicon 1b EC50), 0.3 µM in assay [2] and 1.03 µM in assay [3]. Further, the IC50 on 1b (BK) NS5bΔ21 (setting [9]) stood at 0.36 µM; in assay [5], 0.02 µM.
